# According to PubChem BioAssay AID651630 (Sanford-Burnham Center for Chemical Genomics, 2012):
# Calls of active or inactive are those of the source.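 Rule for the calls: active = lipid-stain IC50 at or below a set limit, with nuclear-stain toxicity IC50 at least five times higher; inactive = the rest.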
# Experiments:
# [1] = system: DAPI; test: TAG lipid buildup inhibition with viability readout – cell-based, panel, Nile Red and DAPI fluorescence, H9c2, dose response (AID 651630); settings: H9c2 cells, DAPI nuclear fluorescence (cytotoxicity counter-readout), oleic acid;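 note: cells exposed to compound overnight before fixation and staining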
# [2] = system: TAG; test: as above; settings: H9c2 cells, Nile Red TAG fluorescence, oleic acid
Compound,IC50 cytotoxicity (DAPI nuclear signal decrease) ([1]; mean of runs),IC50 cytotoxicity (DAPI nuclear signal decrease) ([1]; run 1) [µM],IC50 cytotoxicity (DAPI nuclear signal decrease) ([1]; run 2) [µM],IC50 ([2]; mean of runs),IC50 ([2]; run 1) [µM],IC50 ([2]; run 2) [µM]
CCOC(=O)C(C)Oc1cccc2c(=O)n(CC(=O)NCc3ccc4c(c3)OCO4)ccc12 (stereo unspecified),> 25 µM (inactive),> 25,> 25,18 µM (inactive),18.2,17.9
COc1ccc(CC(N)c2csc(NC(=O)Nc3ccccc3C(C)C)n2)cc1 (stereo unspecified),21.5 µM (inactive),20.3,22.7,> 25 µM (inactive),> 25,> 25
Cn1nnnc1Sc1ncnc2scc(-c3cccc(S(C)(=O)=O)c3)c12,> 25 µM (inactive),> 25,> 25,> 25 µM (inactive),> 25,> 25
O=c1c2c3nc4ccccc4nc3n(/N=C/c3ccccn3)c2ncn1-c1ccccc1,–,> 25,> 25,2.48 µM,3.37,1.59
O=C(C[C@H]1C[C@H](C(=O)N2CCOCC2)[C@@]2(CCC3CCCC3)c3[nH]c4ccc(Cl)cc4c3CCN2C1=O)NCC12CC3CC(CC(C3)C1)C2,> 25 µM (inactive),> 25,> 25,> 25 µM (inactive),> 25,> 25
Cc1ccc2nc3n(c(=O)c2c1)-c1cc2ccccc2cc1C(=O)NC3Cc1ccc(O)cc1 (stereo unspecified),> 25 µM (inactive),> 25,> 25,–,24.9,> 25
COC(=O)c1cc(NC(=O)c2c(Cl)nc3sccn23)cc(C(=O)OC)c1,> 25 µM (inactive),> 25,> 25,> 25 µM (inactive),> 25,> 25
Cc1ccc2[nH]c(-c3ccccc3)cc(=O)c2c1,> 25 µM (inactive),> 25,> 25,> 25 µM (inactive),> 25,> 25
COC(=O)c1c(NC(NC(=O)C(C)(C)C)C(Cl)(Cl)Cl)sc2c1CCC2 (stereo unspecified),> 25 µM (inactive),> 25,> 25,13.3 µM,13.1,13.5
O=C(Nc1cccc(Cl)c1)c1nc[nH]c1C(=O)NCCCNC(=O)c1[nH]cnc1C(=O)Nc1cccc(Cl)c1,> 25 µM (inactive),> 25,> 25,–,9.63,> 25
CCOC(=O)c1[nH]c2ccc(OCC)cc2c1NC(=O)CN1CCN(c2ccccc2)CC1,> 25 µM (inactive),> 25,> 25,22.7 µM (inactive),20.4,25
CN1CCCC(n2nc(Cc3ccc(Cl)cc3)c3ccccc3c2=O)CC1 (stereo unspecified),> 25 µM (inactive),> 25,> 25,18.3 µM (inactive),24.2,12.4
Cc1nc2c(ccc3nc(NC(=O)Cc4cccc5ccccc45)sc32)s1,> 25 µM (inactive),> 25,> 25,13.3 µM,11.5,15.1
COc1ccc2[nH]c(C)c(CCNCc3cn(C)c4ccccc34)c2c1,> 25 µM (inactive),> 25,> 25,10.7 µM,10.2,11.2
COc1ccccc1C1C2=C(COC2=O)Nc2cc3c(cc21)OCO3 (stereo unspecified),> 25 µM (inactive),> 25,> 25,–,< 0.78,> 25
C=CC[C@@H](CC(=O)N(CCO)Cc1ccccc1)C(=O)N[C@H](COC(=O)[C@@H](CC=C)CC(=O)OC(C)(C)C)C(C)(C)C,–,> 25,> 25,3.39 µM,4.3,2.48
